{
  "source": "patent US8338482B2",
  "about": "“Modulating notch1 signaling pathway for treating neuroendocrine tumors” (Wisconsin Alumni Research Foundation, priority 2007, dated 2012)",
  "key": {"Hedgehog signaling": {"tested_on": "Hedgehog signaling", "details": "50 mg/kg/d i.p.", "description": "Sixty nude mice undergo intrasplenic injection of NE tumor cells as described above. […] Treatment continues for 8 weeks.\n2) Interval assessment of tumor burden. All animals undergo microCT scanning every week for 8 weeks as described above. Blood is sampled weekly for measurement of serotonin or calcitonin levels.\n3) Measurement of Hedgehog signaling inhibition. […] The liver lesions from animals sacrificed at 2 weeks intervals (n=3 per group) are microdissected from normal liver and total RNA extracted. Tumors in cycloamine treated mice are analyzed for downregulation of Gli1 expression by real-time PCR when compared to control animals."}, "Hedgehog pathway": {"tested_on": "Hedgehog pathway", "details": "murine models; cited from earlier work"}},
  "data": [
    {"smiles": "CC1=C2C[C@H]3[C@@H](CC=C4C[C@@H](O)CC[C@@]43C)[C@@H]2CC[C@]12O[C@@H]1C[C@H](C)CN[C@H]1[C@H]2C", "note": "[Cyclopamine]", "values": [
      {"measurement": "Hedgehog signaling within the NE tumor cells", "setting": "Hedgehog signaling", "result": "confirmed to inhibit"},
      {"measurement": "Hedgehog signaling", "setting": "Hedgehog pathway", "result": "completely blocked"},
      {"measurement": "tumors dependent on Hedgehog signaling", "setting": "Hedgehog pathway", "result": "caused regression"}
    ]}
  ]
}
